Consider 13 compounds from patent publication US20230212138A1, “PHD INHIBITOR COMPOUNDS, COMPOSITIONS, AND THEIR USE” (Akebia Therapeutics, Inc., priority 2020, published 2023).

What all share (assay type): biochemical
For one assay, the target named is T1, full-length human PHD1 (Homo sapiens, UniProt Q96KS0).
T1 construct: expressed in a baculovirus expression system as the full-length protein; FLAG (N); purchased Active Motif 81064; host or cells: baculovirus expression system
As to the kind of experiment: TR-FRET assay, PHD1 enzymatic IC50. The note with it: 15 nM PHD1, 1 μM 2-OG. The source says:
(§1) In the presence of 2-oxoglutarate and O2, PHD enzyme hydroxylates proline 564 of biotin-tagged HIF-1α peptide resulting in generation of biotin-tagged HIF-1α-hydroxyproline, succinate and CO2. The resulting proximity of the donor fluorophore complex, monoclonal antibody anti-6His-Terbium (Tb)-cryptate Gold, bound to the His-tagged VHL protein, EloB, EloC complex (His-VBC) and the acceptor fluorophore, SA-D2 complex, bound to HIF-1α-hydroxyproline results in a fluorescence resonance energy transfer signal that can be detected and quantified
(§2) Time-resolved fluorescence resonance energy transfer (TR-FRET) assay was utilized to determine the enzymatic half maximal inhibitory concentration (IC50) value of PHD inhibitors against the full-length human prolyl-4-hydroxylase domain (PHD) enzymes, PHD1, PHD2, and PHD3. The TR-FRET assay was developed based on the specific binding of hydroxylated HIF-1α peptide with the complex formed by VHL, EloB and EloC (VBC), to generate a fluorescent signal. Terbium (Tb)-Donor (monoclonal antibody anti-6His-Tb-cryptate Gold) and D2-acceptor (streptavidin [SA]-D2) of TR-FRET are linked to the VBC complex and to HIF-1α peptide, respectively. The VBC complex binds specifically to the HIF-1α peptide when it is hydroxylated, allowing energy transfer from TR-FRET donor to acceptor (FIG. 1).
Recombinant human PHD1 protein (catalog #81064, Lot #24717001) was purchased from Active Motif (Carlsbad, Calif., USA). PHD1 was expressed in a baculovirus expression system as the full-length protein (NCBI accession number NP_542770.2) with an N-terminal FLAG tag (molecular weight 44.9 kDa). Purity (>90%) was assessed by SDS-PAGE.
(§3) PHD inhibitor compound was preincubated with PHD enzyme in a 10 μL reaction volume in white 384-well Optiplate microplates (catalog #6007290, Perkin Elmer, Waltham, Mass., USA). For this, 5 μL PHD inhibitor compound was serially diluted with dilution buffer (50 mM HEPES [4-(2-hydroxyethyl)-1-piperazineethanesulfonic acid] pH 7.5, 50 mM sodium chloride [NaCl], 0.01% Tween-20, 0.01% purified bovine serum albumin [BSA]) and mixed with 5 μL PHD enzyme mix prepared as a 4× concentrate in the dilution buffer containing PHD enzyme (60 nM PHD1, 20 nM PHD2, 140 nM PHD3), 40 μM ferrous ammonium sulfate (FAS), 4 mM sodium (Na) ascorbate. The plates were incubated for 30 minutes at room temperature without rotation.
(§4) Five microliters of the VBC/anti-6His-Tb-cryptate Gold mix prepared as a 4×concentrate in dilution buffer containing 20 nM His-VBC, 1.32 nM monoclonal antibody anti-6His-Tb-cryptate Gold was then added. This step was followed immediately by the addition of 5 μL of the HIF-1α C35 substrate mix prepared as a 4×concentrate in the dilution buffer containing 120 nM biotin-labeled HIF-1α C35, 132 nM SA-D2, 4 μM 2-oxoglutarate (2-OG) to reach a final reaction volume of 20 μL.
(§5) The final assay reaction contained 50 mM HEPES, pH 7.5, 50 mM NaCl, 1 μM 2-OG, 10 μM FAS, 1 mM Na ascorbate, 0.01% Tween-20, 0.01% purified BSA, 30 nM biotin-labeled HIF-1α C35, 5 nM His-VBC, 0.33 nM monoclonal antibody anti-6His-Tb-cryptate Gold, 33 nM SA-D2 and PHD enzyme (15 nM PHD1, 5 nM PHD2, or 35 nM PHD3) with the diluted compound.
(§6) For the measurement of the IC50 of PHD inhibitor compound, reactions were incubated for 10 minutes at room temperature and then read on a Perkin Elmer EnVision (Waltham, Mass., USA) at an excitation wavelength of 340 nm and at emission wavelengths of 615 nm and 665 nm. The data represent the quotient of the signal intensity at 665 nm and 615 nm, automatically calculated by Envision Manager software (Perkin Elmer, Waltham, Mass., USA). The IC50 values (mean, standard deviation, standard error of the mean, geometric mean and 95% confidence interval) were determined using a four-parameter curve-fit using GraphPad Prism 7.0 (GraphPad, La Jolla, Calif., USA) and represent the compound concentration plotted against the calculated ratio of 665 nm and 615 nm. […]

Another assay addresses T2, full-length human PHD2 (Homo sapiens, UniProt Q9GZT9).
T2 construct: The PHD2 construct contained amino acids 1 to 426 of PHD2; His tag (N, cleaved yes); TEV protease cleavage site (N, cleaved yes); host or cells: Sf9 insect cells (baculovirus)
Nature of the assay: TR-FRET assay, PHD2 enzymatic IC50. The settings on record: 5 nM PHD2, 1 μM 2-OG.
Text: as §1, §2
The full-length human PHD2 enzyme was produced with a baculovirus infected insect cell (BIIC) expression system by Beryllium (Bedford, Mass., USA). The PHD2 construct contained amino acids 1 to 426 of PHD2 (UniProt Knowledgebase[UniProtKB]/Swiss-Prot accession number Q9GZT9.1), and a His tag and a Tobacco Etch Virus (TEV) protease cleavage site at the N-terminus. The construct was expressed in Sf9 insect cells, purified by Ni-NTA column and digested with TEV protease to remove the His tag.
as §3, §4, §5
For the measurement of the IC50 of PHD inhibitor compound, reactions were incubated for 10 minutes at room temperature and then read on a Perkin Elmer EnVision (Waltham, Mass., USA) at an excitation wavelength of 340 nm and at emission wavelengths of 615 nm and 665 nm. The data represent the quotient of the signal intensity at 665 nm and 615 nm, automatically calculated by Envision Manager software (Perkin Elmer, Waltham, Mass., USA). […]
For orientation: TR-FRET usually uses a lanthanide donor and a delayed reading to cut background.

Another assay concerns the target T3, full-length human PHD3 (Homo sapiens, UniProt Q9H6Z9).
T3 construct: It was expressed in E. coli as the full-length protein; 6-His (N); purchased Active Motif 81033; host or cells: E. coli
Nature of the assay: TR-FRET assay, PHD3 enzymatic IC50. The settings on record: 35 nM PHD3, 1 μM 2-OG.
Text: as §1, §2
Recombinant human PHD3 protein (molecular weight 31.1 kDa) was purchased from Active Motif (Carlsbad, Calif., USA). It was expressed in E. coli as the full-length protein (NCBI accession number NP_071356.1) with an N-terminal 6-His tag (catalog #81033, Lot #24417001).
as §3, §4, §5, §6

Where only a bound is given, the exact number is not on record here.

T3 sequence (Q9H6Z9 whole entry): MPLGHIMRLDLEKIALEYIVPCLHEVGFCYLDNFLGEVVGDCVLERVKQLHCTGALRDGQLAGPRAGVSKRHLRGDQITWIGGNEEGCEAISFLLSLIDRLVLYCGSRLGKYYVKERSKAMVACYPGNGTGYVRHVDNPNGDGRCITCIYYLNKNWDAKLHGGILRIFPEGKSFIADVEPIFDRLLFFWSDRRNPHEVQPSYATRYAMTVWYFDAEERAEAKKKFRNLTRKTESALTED
T2 sequence (Q9GZT9 whole entry, the tested form may be a part): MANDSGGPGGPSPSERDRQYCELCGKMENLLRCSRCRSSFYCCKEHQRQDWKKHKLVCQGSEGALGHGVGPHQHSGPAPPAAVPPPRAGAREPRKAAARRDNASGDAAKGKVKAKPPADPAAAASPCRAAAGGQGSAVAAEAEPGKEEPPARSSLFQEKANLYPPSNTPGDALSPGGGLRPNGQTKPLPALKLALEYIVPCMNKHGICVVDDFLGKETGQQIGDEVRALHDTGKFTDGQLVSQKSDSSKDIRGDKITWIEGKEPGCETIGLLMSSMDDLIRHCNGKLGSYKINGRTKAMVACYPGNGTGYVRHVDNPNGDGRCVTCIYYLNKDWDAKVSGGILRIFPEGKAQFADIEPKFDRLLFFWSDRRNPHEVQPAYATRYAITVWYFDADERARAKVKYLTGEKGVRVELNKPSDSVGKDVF
T1 sequence (Q96KS0 whole entry): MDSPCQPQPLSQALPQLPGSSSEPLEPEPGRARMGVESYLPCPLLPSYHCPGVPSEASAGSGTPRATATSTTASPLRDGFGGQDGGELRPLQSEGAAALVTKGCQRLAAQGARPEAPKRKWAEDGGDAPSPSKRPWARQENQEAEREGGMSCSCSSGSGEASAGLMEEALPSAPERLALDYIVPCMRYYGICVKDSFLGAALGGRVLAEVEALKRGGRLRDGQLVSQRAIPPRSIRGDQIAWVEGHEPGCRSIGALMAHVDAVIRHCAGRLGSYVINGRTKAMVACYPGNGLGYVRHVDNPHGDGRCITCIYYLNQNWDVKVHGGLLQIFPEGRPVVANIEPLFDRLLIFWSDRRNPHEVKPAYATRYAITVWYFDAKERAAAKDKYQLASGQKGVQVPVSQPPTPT

As for `CS(=O)(=O)c1ccc(-n2ncc(-c3ccc(CC#N)cc3)c2O)nc1` [Compound 7, 2-(4-(5-hydroxy-1-(5-(methylsulfonyl)pyridin-2-yl)-1H-pyrazol-4-yl)phenyl)acetonitrile], the half-maximal inhibitory concentration (IC50) against full-length human PHD1, against full-length human PHD2 and against full-length human PHD3 was less than 0.1 µM in each case.
In the case of `N#Cc1ccc(-c2cnn(-c3ccc(-c4ncco4)cn3)c2O)cc1` [Compound 11, 4-(5-hydroxy-1-(5-(oxazol-2-yl)pyridin-2-yl)-1H-pyrazol-4-yl)benzonitrile], the IC50 at full-length human PHD1 is less than 0.1 µM; at full-length human PHD2, less than 0.1 µM; against full-length human PHD3, 0.1 to 1 µM.
Consider `CC(=O)c1ccc(-n2ncc(-c3ccc(C#N)cc3)c2O)nc1` [Compound 1, 4-(1-(5-acetylpyridin-2-yl)-5-hydroxy-1H-pyrazol-4-yl)benzonitrile], for which the IC50 against full-length human PHD1, against full-length human PHD2 and against full-length human PHD3 was less than 0.1 µM each time.
As for `N#Cc1ccc(-c2cnn(-c3ccc(F)cn3)c2O)cc1` [Compound 17, 4-(1-(5-fluoropyridin-2-yl)-5-hydroxy-1H-pyrazol-4-yl)benzonitrile], the IC50 at full-length human PHD1 was less than 0.1 µM; against full-length human PHD2 it was less than 0.1 µM; at full-length human PHD3, 0.1 to 1 µM.
For `CCC(=O)Nc1ccc(-n2ncc(-c3ccc(C#N)cc3)c2O)nc1` [Compound 23, N-(6-(4-(4-cyanophenyl)-5-hydroxy-1H-pyrazol-1-yl)pyridin-3-yl)propionamide], the IC50 against full-length human PHD1, against full-length human PHD2 and at full-length human PHD3 was less than 0.1 µM in each case.
On to `N#Cc1ccc(-c2cnn(-c3ccc(-c4nccs4)cn3)c2O)cc1` [Compound 12, 4-(5-hydroxy-1-(5-(thiazol-2-yl)pyridin-2-yl)-1H-pyrazol-4-yl)benzonitrile], for which the IC50 against full-length human PHD1, on full-length human PHD2 and against full-length human PHD3 was less than 0.1 µM each time.
For `CCC(=O)c1ccc(-n2ncc(-c3ccc(C#N)cc3)c2O)nc1` [Compound 2, 4-(5-hydroxy-1-(5-propionylpyridin-2-yl)-1H-pyrazol-4-yl)benzonitrile], the IC50 against full-length human PHD1, at full-length human PHD2 and against full-length human PHD3 was less than 0.1 µM each time.
On to `CC(C)C(=O)c1ccc(-n2ncc(-c3ccc(C#N)cc3)c2O)nc1` [Compound 3, 4-(5-hydroxy-1-(5-isobutyrylpyridin-2-yl)-1H-pyrazol-4-yl)benzonitrile], for which the half-inhibitory concentration (IC50) against full-length human PHD1, against full-length human PHD2 and against full-length human PHD3 was less than 0.1 µM each time.
As to `CS(=O)(=O)c1ccc(-n2ncc(-c3ccc(C#N)cc3)c2O)nc1` [Compound 4, 4-(5-hydroxy-1-(5-(methylsulfonyl)pyridin-2-yl)-1H-pyrazol-4-yl)benzonitrile], the IC50 at full-length human PHD1, against full-length human PHD2 and on full-length human PHD3 was less than 0.1 µM in each case.
Turning to `N#Cc1ccc(-c2cnn(-c3ccc(NC(=O)C4CC4)cn3)c2O)cc1` [Compound 22, N-(6-(4-(4-cyanophenyl)-5-hydroxy-1H-pyrazol-1-yl)pyridin-3-yl)-cyclopropanecarboxamide], the figures for the IC50 at full-length human PHD1, against full-length human PHD2 and against full-length human PHD3 were less than 0.1 µM, less than 0.1 µM and 0.1 to 1 µM, respectively.
Consider `CS(=O)(=O)Nc1ccc(-n2ncc(-c3ccc(C#N)cc3)c2O)nc1` [Compound 24, N-(6-(4-(4-cyanophenyl)-5-hydroxy-1H-pyrazol-1-yl)pyridin-3-yl)methanesulfonamide], for which the IC50 against full-length human PHD1, at full-length human PHD2 and on full-length human PHD3 was less than 0.1 µM throughout.
As for `N#Cc1ccc(-c2cnn(-c3ccc(-n4cccn4)cn3)c2O)cc1` [Compound 10, 4-(1-(5-(1H-pyrazol-1-yl)pyridin-2-yl)-5-hydroxy-1H-pyrazol-4-yl)benzonitrile], the IC50 at full-length human PHD1 is less than 0.1 µM; on full-length human PHD2, less than 0.1 µM; against full-length human PHD3, 0.1 to 1 µM.
Take `N#Cc1ccc(-c2cnn(-c3ccc(N4CCCC4=O)cn3)c2O)cc1` [Compound 15, 4-(5-hydroxy-1-(5-(2-oxopyrrolidin-1-yl)pyridin-2-yl)-1H-pyrazol-4-yl)benzonitrile]: the IC50 against full-length human PHD1, against full-length human PHD2 and at full-length human PHD3 was less than 0.1 µM in each case.

As a reminder, the IC50 is the concentration that gives 50% inhibition.
